Laboratory results taken from US11149300B1, “Methods of treating gastrointestinal malignancies” (Cedars-Sinai Medical Center, priority 2018, dated 2021).
Structures can show the parent of a compound that is named as a salt. Where two headings read alike, the source gives them in different places.

Tests used:
pancreatic cancer [1] = conditions: in vivo; cited from earlier work
[2] = in vivo; cited from earlier work
[3] = tested on: metastatic triple negative breast cancer; conditions: cited from earlier work
[4] = tested on: Breast carcinoma (human MX-1); conditions: agent combined with veliparib; cited from earlier work
[5] = tested on: B Cell lymphoma (human DOHH2); conditions: agent combined with veliparib; cited from earlier work
Melanoma (murine B16F10) = conditions: agent combined with veliparib; cited from earlier work
[6] = tested on: locally advanced and metastatic pancreatic carcinomas; conditions: cited from earlier work
pancreatic cancer [7] = conditions: cited from earlier work
[8] = tested on: locally advanced and metastatic pancreatic adenocarcinoma; conditions: cited from earlier work
[9] = tested on: unresectable pancreatic cancer; conditions: cited from earlier work
pancreatic cancer [10] = conditions: full-dose gemcitabine with 36 Gy; cited from earlier work
[11] = human, in vivo; cited from earlier work
[12] = repeated dose toxicity, sole agent; type: in vivo, rats; conditions: no adverse effects, highest dose tested
[13] = repeated dose toxicity in conjunction with cisplatin; type: in vivo, rats
[14] = cited from earlier work
[15] = highest dose tested; cited from earlier work
[16] = cited from earlier work; remark: listed apart in the source
[17] = in vitro; cited from earlier work
[18] = repeated dose (2-week) toxicology study; conditions: 30 mg base/kg/day
C-41 cells = conditions: cited from earlier work
[19] = cited from earlier work; remark: listed apart in the source
PARP = conditions: cited from earlier work
[20] = monkey; cited from earlier work
[21] = dog, 5 μM; cited from earlier work
[22] = 8-hour incubation; cited from earlier work
human 5-HT7 = human 5-HT7 (Homo sapiens, UniProt P34969); conditions: 10 μM (2.4 μg/mL); cited from earlier work
Chain of human 5-HT7 (P34969 whole entry): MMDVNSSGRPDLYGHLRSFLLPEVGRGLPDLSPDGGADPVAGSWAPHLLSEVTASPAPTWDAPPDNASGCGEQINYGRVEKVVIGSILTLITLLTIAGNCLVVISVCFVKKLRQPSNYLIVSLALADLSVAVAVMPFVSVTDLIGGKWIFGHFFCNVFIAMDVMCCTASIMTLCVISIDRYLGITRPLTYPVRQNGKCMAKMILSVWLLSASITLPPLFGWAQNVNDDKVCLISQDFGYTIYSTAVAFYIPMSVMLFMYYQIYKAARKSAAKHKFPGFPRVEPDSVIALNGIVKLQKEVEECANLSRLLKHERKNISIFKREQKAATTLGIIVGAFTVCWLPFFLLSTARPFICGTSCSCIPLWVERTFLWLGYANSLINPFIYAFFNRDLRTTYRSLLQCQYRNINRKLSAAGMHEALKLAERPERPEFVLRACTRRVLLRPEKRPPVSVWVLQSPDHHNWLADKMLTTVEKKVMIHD

[23] = mice, cited from earlier work
[24] = cited from earlier work; remark: listed apart in the source
PAR in PBMCs and tumor = conditions: cited from earlier work; for treatment related adverse events: single dose 10 or 25 mg
[25] = anesthetized dog cardiovascular model
[26] = tested on: locally advanced or borderline resectable pancreatic cancer; assay: Phase I VelGemRad trial, PFS and OS, overall and by DDR biomarker
Protocol: RNA-seq libraries were prepared from pre-treatment tumor biopsies. The database for annotation, visualization, and integrated discovery (DAVID) v6.7 was used to interpret the differential expression genes data. Cox regression model was used to identify DNA damage related pathways associated with patient survivals.
The secondary objective was to measure the clinical activity of the treatment (progression free survival—PFS, overall survival—OS) and evaluate patient tumor or blood pre-, during and post treatment for DNA damage repair alterations, PAR levels and immune mediators. Between 2013 and 2016, 34 patients enrolled at a single institution. Four were removed due to non-compliance. The median age was 67 and 24 were LAPC and 6 were borderline resectable prostate cancer (BR).
Treatment naïve patients with LA or borderline resectable pancreatic cancer (BR) were treated with weekly G (1000 mg/m^2), daily RT (36 Gy/15 fractions) and V 20 mg BID daily for 3 weeks escalated per Bayesian method followed by standard chemotherapy. DAVID v6.7 was used to interpret transcriptomic differential expression of genes. Cox regression model was used to identify DDR pathways associated with survival. […] The log-rank test was used to evaluate differences in PFS and OS.

[27] = all patients, with gemcitabine and IMRT
[28] = biomarker positive (+), DNA repair defects by gene expression

Q: Which results are given for `O=c1[nH]cc(F)c(=O)[nH]1` [5 FU]?
A: median survival (pancreatic cancer [1]): 4.41 months; patients with clinical benefit (pancreatic cancer [1]): 5%

Q: For `CC1(c2nc3c(C(N)=O)cccc3[nH]2)CCC(=O)N1` (stereo not shown) [A-925088], which route of clearance [2] is on record?
A: Its route of clearance is “cleared primarily in the urine”.

Q: With `NC(=O)c1ccc(I)c([N+](=O)[O-])c1` [BSI-201] as the molecule, how does the “frequency and nature of adverse events” value ([3]; in vivo) read?
A: The value was “did not differ between arms”.

Q: And the “clinical outcome versus chemotherapy alone” value ([3]; with gemcitabine 1000 mg/m^2 and carboplatin AUC=2)?
A: Its value is “improved CBR, median PFS, and median OS”.

Q: For `N.N.O=C([O-])C1(C(=O)[O-])CCC1.[Pt+2]` [Carboplatin], which “veliparib mediated potentiation of cytotoxic agent” value (“veliparib mediated potentiation” below) [4] is on record?
A: Its value is “Yes”.

Q: With `N.N.[Cl][Pt][Cl]` [Cisplatin] as the molecule, how does the “veliparib mediated potentiation” value [4] read?
A: The value was “Yes”.

Q: What about the “veliparib mediated potentiation” value [5] of the same molecule?
A: The value was “No”.

Q: With `O=P1(N(CCCl)CCCl)NCCCO1` (stereo not shown) [Cyclophosphamide] as the molecule, how does the “veliparib mediated potentiation” value [4] read?
A: Its value is “Yes”.

Q: With `CCc1c2c(nc3ccc(OC(=O)N4CCC(N5CCCCC5)CC4)cc13)-c1cc3c(c(=O)n1C2)COC(=O)[C@]3(O)CC` [Irinotecan] as the molecule, how does the “veliparib mediated potentiation” value (Melanoma (murine B16F10)) read?
A: The value was “Yes”.

Q: For `Nc1ccn([C@@H]2O[C@H](CO)[C@@H](O)C2(F)F)c(=O)n1` [gemcitabine, 2′,2′-Difluoro-2′-deoxycytidine], which median survival (pancreatic cancer [1]) is on record?
A: The median survival was 5.56 months.

Q: And the “patients with clinical benefit” value (pancreatic cancer [1])?
A: The value was ~25%.

Q: What about the response rates ([6]; chemo naïve patients) of the same molecule?
A: Its response rates is “up to 42%”.

Q: And the response rates ([6]; heavily pretreated patients)?
A: The response rates was 11-22%.

Q: And the objective responses (pancreatic cancer [7]; combined arm, gemcitabine 600 mg/m^2 with 50.4 Gy)?
A: The objective responses was 8.8%.

Q: And the “Grade IV toxicity” value (pancreatic cancer [7]; combined group)?
A: The value was 41.2%.

Q: What about the objective responses (pancreatic cancer [7]; gemcitabine alone arm (1000 mg/m^2)) of the same molecule?
A: The objective responses was 2.7%.

Q: And the “Grade IV toxicity” value (pancreatic cancer [7]; gemcitabine alone)?
A: The value was 5.7%.

Q: And the “intracellular gemcitabine triphosphate concentration” value ([8]; FDR arm versus standard)?
A: Its value is “two-fold increase”.

Q: What about the median survival ([8]; FDR arm, 1,500 mg/m^2 over 150 minutes) of the same molecule?
A: The median survival was 8.0 months.

Q: And the hematologic toxicity ([8]; FDR infusion arm)?
A: Its hematologic toxicity is “increased but acceptable hematologic toxicity”.

Q: What about the median survival ([8]; standard arm, 2,200 mg/m^2 over 30 minutes) of the same molecule?
A: The median survival was 5.0 months.

Q: What about the “patients with DLT” value ([9]; FDR-G with IMRT 50-60 Gy) of the same molecule?
A: The value was 6 patients.

Q: What about the median overall survival ([9]; in vivo) of the same molecule?
A: Its median overall survival is 23.1 months.

Q: What about the median progression-free survival ([9]; in vivo) of the same molecule?
A: Its median progression-free survival is 7.2 months.

Q: And the response rate ([9]; in vivo)?
A: The response rate was 52.4%.

Q: What about the disease control rates (pancreatic cancer [10]) of the same molecule?
A: Its disease control rates is 84.6%.

Q: And the response rates (pancreatic cancer [10])?
A: The response rates was 5.1%.

Q: And the tolerability (pancreatic cancer [10])?
A: The tolerability was “well-tolerated”.

Q: And the “time to steady-state plasma levels after starting infusion” value [11]?
A: Its value is ≤ 15 min.

Q: Which “Cmax as multiple of estimated therapeutic peak plasma concentration” value [12] does the source give for `C[C@]1(c2nc3c(C(N)=O)cccc3[nH]2)CCCN1` [veliparib dihydrochloride] here?
A: The value was “greater than 19 fold”.

Q: And the “Cmax as multiple of estimated therapeutic peak plasma concentration” value ([13]; highest dose with cisplatin)?
A: Its value is 22 fold.

Q: And the “Cmax as multiple of estimated therapeutic value” ([13]; no clinically meaningful exacerbation)?
A: The value was “up to 8 fold”.

Q: And the toxic findings ([14]; 30 mg base/kg/day)?
A: Its toxic findings is “emesis, body weight losses related to anorexia, and convulsions”.

Q: What about the “adverse effects, sole agent” value [15] of the same molecule?
A: The value was “did not result in adverse effects”.

Q: What about the “exacerbation of cisplatin-associated toxicity” value ([16]; highest dose with cisplatin) of the same molecule?
A: Its value is “Exacerbation of cisplatin-associated toxicity”.

Q: And the “exacerbation of cisplatin-associated toxicity” value ([16]; lower doses with cisplatin)?
A: The value was “no clinically meaningful exacerbations”.

Q: And the clastogenicity [17]?
A: The clastogenicity was “negative”.

Q: And the mutagenicity [17]?
A: The mutagenicity was “negative”.

Q: What about the “Cmax as multiple of estimated therapeutic peak plasma concentration” value [18] of the same molecule?
A: Its value is 26 fold.

Q: Which “γ-H2AX foci (DNA damage)” value (C-41 cells; added to 1 mM temozolomide) does the source give for `C[C@]1(c2nc3c(C(N)=O)cccc3[nH]2)CCCN1` [veliparib] here?
A: The value was “further potentiated”.

Q: What about the “DNA damage caused by irinotecan” value (C-41 cells; with irinotecan) of the same molecule?
A: Its value is “potentiates”.

Q: What about the potentiation of cisplatin ([19]; long-term clonogenic assay) of the same molecule?
A: Its potentiation of cisplatin is “potentiation was observed”.

Q: And the potentiation of cisplatin ([19]; short-term cytotoxicity assay)?
A: The potentiation of cisplatin was “not in the short-term cytotoxicity assay”.

Q: What about the “inhibition of PARP activity in tumors” value (PARP; 12.5, 5 and 1 mg/kg/day, vehicle and temozolomide treated groups) of the same molecule?
A: The value was “significant”.

Q: And the “PAR formation in tumors” value (PARP; veliparib alone, two hours after administration)?
A: The value was “inhibited PAR formation in B16F10 tumors in a dose-dependent manner”.

Q: What about the oral bioavailability [20] of the same molecule?
A: Its oral bioavailability is 56.1%.

Q: What about the “protein binding in plasma, % bound” value [21] of the same molecule?
A: Its value is 42%.

Q: What about the stability in plasma [22] of the same molecule?
A: Its stability in plasma is “very stable”.

Q: What about the “displacement of control-specific binding” value (human 5-HT7) of the same molecule?
A: Its value is 84%.

Q: And the “outcome after electrically-induced tonic convulsions” value ([23]; 100 mg/kg PO)?
A: The value was “increased incidence of death”.

Q: What about the “outcome in audiogenic seizure model” value [23] of the same molecule?
A: Its value is “Death was also noted”.

Q: What about the seizures ([14]; 60 mg/kg/day, 30 mg/kg twice daily or 30 mg/kg every day) of the same molecule?
A: The seizures was “seizures were also noted”.

Q: And the “non-toxic dose in the most sensitive mammalian species” value ([14]; beagle dogs)?
A: The value was 300 mg/m^2.

Q: What about the “plasma concentrations in dogs with seizures” value ([14]; dog, in vivo) of the same molecule?
A: The value was > 5400 ng/mL.

Q: What about the “change in mean arterial pressure versus baseline” value ([24]; 12.96 μg/mL) of the same molecule?
A: The value was −16±5%.

Q: And the “change in systemic vascular resistance versus baseline” value ([24]; 12.96 μg/mL)?
A: The value was −10±7%.

Q: And the “QTcV prolongation above baseline” value ([24]; 12.96±0.92 μg/mL)?
A: The value was 15±3%.

Q: And the “mean plasma concentration with modest haemodynamic effects” value ([24]; dog, in vivo)?
A: Its value is 12960 ± 920 ng/mL.

Q: What about the “mean plasma concentration without haemodynamic change” value ([24]; dog, in vivo) of the same molecule?
A: The value was 4450 ± 130 ng/mL.

Q: And the “mean arterial pressure, heart rate, dP/dtmax, pulmonary arterial pressure, vascular resistance” value ([24]; mean plasma concentrations up to 4.45 μg/mL)?
A: Its value is “no physiologically relevant changes”.

Q: What about the “delayed repolarization (QTc intervals), trend” value ([24]; plasma concentrations 21-fold predicted Cmax) of the same molecule?
A: The value was 7%.

Q: What about the “patients exceeding target plasma Cmax of 210 nM” value (PAR in PBMCs and tumor; 10 mg dose level) of the same molecule?
A: The value was 2 of 3 patients.

Q: And the “patients exceeding target plasma Cmax of 210 nM for at least 4 hours” value (PAR in PBMCs and tumor; 25 mg dose level)?
A: Its value is “all three patients”.

Q: And the “reduction of PAR levels from baseline” value (PAR in PBMCs and tumor; single 25 mg dose, PBMCs and tumor samples)?
A: Its value is 80-99%.

Q: And the “treatment related adverse events” value (PAR in PBMCs and tumor)?
A: Its value is “No treatment related adverse events”.

Q: What about the “treatment related adverse events” value (PAR in PBMCs and tumor; listed as ABT-888) of the same molecule?
A: Its value is “no treatment related adverse events”.

Q: And the “multiple of predicted clinical Cmax” value ([25]; at 4.45 μg/mL)?
A: Its value is 21 fold.

Q: What about the “multiple of predicted clinical Cmax” value ([25]; at 12.96 μg/mL) of the same molecule?
A: The value was 62 fold.

Q: What about the “multiple of predicted clinical Cmax at which QT prolongation was seen” value ([25]; dog, in vivo) of the same molecule?
A: Its value is 21 fold.

Q: What about the “median OS” value ([26]; FA biomarker (+)) of the same molecule?
A: Its value is 18 months.

Q: What about the “median OS” value ([26]; FA biomarker (−)) of the same molecule?
A: Its value is 12 months.

Q: And the “median OS” value ([26]; MMR biomarker (+))?
A: Its value is 18 months.

Q: And the “median OS” value ([26]; MMR biomarker (−))?
A: The value was 12 months.

Q: And the “median OS” value ([26]; NER biomarker (+))?
A: Its value is 22 months.

Q: What about the “median OS” value ([26]; NER biomarker (−)) of the same molecule?
A: Its value is 12 months.

Q: And the “median overall survival (OS)” value [26, 27]?
A: Its value is 14.6 months.

Q: And the “median progression free survival (PFS)” value [26, 27]?
A: The value was 9.8 months.

Q: What about the “median OS” value ([26]; biomarker negative (−)) of the same molecule?
A: The value was 12 mos.

Q: What about the “median PFS” value ([26]; biomarker negative (−)) of the same molecule?
A: The value was 8 mos.

Q: And the “median OS” value [26, 28]?
A: Its value is 22 mos.

Q: What about the “median PFS” value [26, 28] of the same molecule?
A: Its value is 17 mos.
